This test has as its target T1, TgPKA-C (T. gondii PKA catalytic subunit; ToxoDB TGGT1_081170) (Toxoplasma gondii, UniProt Q58G65).
T1 construct: gene PKA2; entire ORF (343 amino acid residues), GST fusion, wheat germ cell-free expression
As to the kind of experiment: in vitro radiometric kinase assay ([γ-32P]ATP, Histone IIAS substrate) with purified GST-TgPKA-C. It counts as biochemical.

T1 sequence (Q58G65 entry or part of it): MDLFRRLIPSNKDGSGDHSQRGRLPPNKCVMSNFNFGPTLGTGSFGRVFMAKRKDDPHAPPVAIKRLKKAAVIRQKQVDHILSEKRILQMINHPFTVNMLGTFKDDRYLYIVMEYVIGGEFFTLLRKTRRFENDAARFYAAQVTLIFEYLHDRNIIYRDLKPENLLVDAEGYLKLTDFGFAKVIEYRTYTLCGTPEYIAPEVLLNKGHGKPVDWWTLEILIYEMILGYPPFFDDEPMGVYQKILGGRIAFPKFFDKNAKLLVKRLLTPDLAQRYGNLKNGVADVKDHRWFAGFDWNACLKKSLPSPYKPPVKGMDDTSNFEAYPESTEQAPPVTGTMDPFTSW

For `O=S(=O)(NCCNC/C=C/c1ccc(Br)cc1)c1cccc2cnccc12` [H89, N-[2-(p-bromocinnamylamino)ethyl]-5-isoquinolinesulfonamide], half-maximal inhibition (IC50) required 175 µM.

Values taken from article PMC3140512, “Identification of Toxoplasma gondii cAMP Dependent Protein Kinase and Its Role in the Tachyzoite Growth” (PLoS ONE, 2011).
